Assay results published in patent publication US9850470B2, “Polyene-specific glycosyltransferase derived from Pseudonocardia autotrophica” (INHA-INDUSTRY PARTNERSHIP INSTITUTE, priority 2013, dated 2017).

Tests used:
[1] = solubility of NPP compared with nystatin; assay type: physicochemical
[2] = hemolytic activity of NPP compared with nystatin; assay type: cell-based
[3] = relative to nystatin which contains only a saccharide
[4] = relative to nystatin, which contains only mycosamine

SMILES: CC(=O)NC1C(OC2C(C)OC(OC3/C=C/C=C/C=C/C=C/CC/C=C/C=C/C(C)C(O)C(C)C(C)OC(=O)CC(O)CC(O)CC(O)CCC(O)C(O)CC4(O)CC(O)C(C(=O)O)C(C3)O4)C(O)C2N)OC(CO)C(O)C1O (stereo not shown) [NPP, nystatin-like polyene (NPP)]
- solubility compared with nystatin (in words) [1, 3]: higher solubility
- higher solubility than nystatin [1, 4]: more than 300 fold
- hemolytic activity compared with nystatin (in words) [2, 3]: lower hemolytic activity
- lower hemolytic activity than nystatin [2, 4]: 10 fold
